From patent publication US20190054041A1, “USE OF NOOTKATONE” (INSTITUTE OF TROPICAL BIOSCIENCE AND BIOTECHOLOGY CHINESE …, priority 2016, published 2019)

How the values were obtained:
[1] = system: ICR mice; details: intragastric once a day for 14 days, nootkatone 1-2 mg/Kg, Prozac 20 mg/Kg
[2] = system: ICR mice; test: Tail suspension test of mice; details: once a day for 14 days, 1.5 h after last administration, last 4 min of 6 min, blank control 151.1 ± 20.1, **P < 0.01
[3] = system: ICR mice; test: Forced swimming test of mice; details: once a day for 14 days, 1.5 h after last administration, last 4 min of 6 min, blank control 148.1 ± 18.9, **P < 0.01
[4] = system: ICR mice; test: 5-HTP induced head twitching mouse model; details: once a day for 14 days, 150 mg/Kg 5-HTP i.p. 0.5 h after last administration, counted in 20 min, blank control 34.1 ± 18.1, **P < 0.01
[5] = system: patients with depression; test: Clinical efficacy observation by reduction rate of HAM-D; type: in vivo, human; details: 40 patients, oral 1.5 mg nootkatone monomer/Kg/time, twice a day, 6 weeks
Text: Forty patients were selected, wherein 20 were male and 20 were female, and their disease durations were from 1 month to 2 years. Diagnosis criteria of depression that conformed to Chinese Classification and Diagnostic Criteria of Mental Disorders scored […] according to the first 17 items in the Hamilton Depression Rating Scale (HAM-D) shown in Table 4. First-onset patients, or patients that had not taken antidepressants and antipsychotics and had not been subjected to electric shock therapy over the past week, and patients with depressive episodes of unipolar affective disorder, aged 20-50 years. Patients having depressive disorder caused by bipolar affective disorder and other causes, severe suicidal tendency, and severe abnormalities in laboratory tests (pregnant or lactating women) were eliminated.
Comment: 0 to 4 in the items of Standard for Evaluation and Point referred to the scores, and the standard for evaluation is: the total score <7 means normality; the total score between 7 and 17 means possible depression; the total score between 17 and 24 means definite depression; and the total score >24 means severe depression.
Nootkatone preparation was used to treat the 40 patients, and the administration manner was: orally taking, 1.5 mg nootkatone monomer/Kg/time, twice a day, and 6 weeks were one course of treatment. […] After 1 course of treatment, reduction rate of HAM-D was used to measure the curative efficacy of the traditional Chinese medicine on patients, reduction rate of HAM-D=(total scores before the treatment−total scores after the treatment)/total scores before the treatment×100%.
The standard of curative efficacy evaluation is hereinafter:
cure: reduction rate of HAMD is >75%;
improved: reduction rate of HAMD is from 25% to […];
invalid: reduction rate of HAMD is <25%.

[6] = 1 mg/Kg (small dose) intragastric
[7] = 1.5 mg/Kg (medium dose) intragastric
[8] = 2 mg/Kg (large dose) intragastric

Row | SMILES | Weight of mice before administration, one week and 2 weeks after administration [1] | Immobility Time, tail suspension test ([2]; 20 mg/Kg intragastric) | Immobility Time, forced swimming test ([3]; 20 mg/Kg intragastric) | Head-Twitching Number ([4]; 20 mg/Kg intragastric) | Adverse reactions in patients [5] | Curative effective rate [5] | Share of patients invalid (reduction rate of HAMD <25%) ([5]; 2 cases) | Share of patients improved (reduction rate of HAMD from 25% to 50%) ([5]; 10 cases) | Share of patients cured (reduction rate of HAMD >75%) ([5]; 14 cases) | Share of patients significantly improved (reduction rate of HAMD from 51% to 75%) ([5]; 14 cases) | Toxicity judged from weight and fur appearance of mice [1] | Immobility Time, tail suspension test [2, 6] | Immobility Time, tail suspension test [2, 7] | Immobility Time, tail suspension test [2, 8] | Immobility Time, forced swimming test [3, 6] | Immobility Time, forced swimming test [3, 7] | Immobility Time, forced swimming test [3, 8] | Head-Twitching Number [4, 6] | Head-Twitching Number [4, 7] | Head-Twitching Number [4, 8]
1 | CNCCC(Oc1ccc(C(F)(F)F)cc1)c1ccccc1 (centres unmarked) [Prozac, fluoxetine, reference compound] | no significant difference | 87.9 ± 22.0** S | 80.9 ± 20.4** s | 57.9 ± 10.4** Time | – | – | – | – | – | – | – | – | – | – | – | – | – | – | – | –
2 | C=C(C)[C@@H]1CCC2=CC(=O)C[C@@H](C)[C@]2(C)C1 [Nootkatone, nootkatone] | – | – | – | – | no case has adverse reactions | 95% | 5% | 25% | 35% | 35% | neither nootkatone nor the positive drug Prozac has toxicity | 84.0 ± 17.6** S | 80.2 ± 21.6** S | 75.1 ± 19.6** S | 74.0 ± 26.9** s | 70.2 ± 22.3** s | 66.1 ± 21.6** s | 58.0 ± 26.2** Time | 60.2 ± 25.1** Time | 63.1 ± 22.5** Time
